We go through six molecules from the NIST ThermoML archive (doi:10.1016/j.jct.2009.07.011).

Structures are written as SMILES. Numbers after ± are expanded uncertainties.

For series [1] the following is noted: 298.15 K, Static calorimetry; for molar enthalpy of sublimation: Crystal.
A short description of series [2]: molar enthalpy of vaporization or sublimation. The following applies: 298.15 K; Crystal; Static calorimetry.

Turning to `Oc1cc(F)cc(F)c1` [3,5-Difluorophenol], the “molar enthalpy of sublimation” value in series [1] turned out to be 17.4 ± 1.05 kcal/mol.
`Oc1ccc(F)cc1F` [2,4-Difluorophenol]: the “molar enthalpy of vaporization” value in series [1] (Liquid) was determined as 14.1 ± 0.43 kcal/mol.
On to `Oc1c(F)cccc1F` [2,6-difluorophenol], for which, in series [2], the molar enthalpy was found to be 18.6 ± 0.908 kcal/mol.
As to `Oc1cc(F)ccc1F` [2,5-Difluorophenol], in series [2], the molar enthalpy worked out at 16.3 ± 0.669 kcal/mol.
Take `Oc1ccc(F)c(F)c1` [3,4-Difluorophenol]: the “molar enthalpy of sublimation” value in series [1] amounted to 17.4 ± 0.717 kcal/mol.
For `Oc1cccc(F)c1F` [2,3-Difluorophenol], the molar enthalpy in series [2] worked out at 16.3 ± 0.717 kcal/mol.
